# Source: patent US4826845A, “3(2H)-pyridazinones and pharmaceutical compositions thereof” (Richter Gedeon Vegyeszeti Gyar T.R., priority 1985, dated 1989)
# Counter-ions that a name gives are not always drawn. Like-named read-outs stand apart in the source and are kept apart here.
# Assays:
# [1] = tested on: anaesthetized cats; experiment: Measurement of the hypotensive effect on anaesthetized cats (i.v. screening); type: in vivo, cat; details: for Mean arterial pressure decrease: anaesthetized cats; for blood pressure lowering action (in words): intravenous, summary of Table 1
# Description: A tube was introduced into the trachea of cats anaesthetized by the intraperitoneal (i.p.) administration of 35 mg/kg of sodium pentobarbital whereby the spontaneous breathing was supported. On the one side of the animals, the femoral artery and vein were exposed and a polyethylene cannula was introduced in both vessels each. The substances to be tested were administered through the venous cannula. The mean arterial blood pressure was measured by connecting the arterial cannula with a Statham P 23 Db pressure transducer and electromanometer.
# As a first screening dose, 5 mg/kg of the compounds to be tested were intravenously (i.v.) administered.
# [2] = tested on: postsynaptic alpha1 receptor; experiment: Kinetic analysis on rabbit aorta strip preparation: postsynaptic alpha1 receptor antagonism; type: cell-based
# Description: Male rabbits with a body-weight of 3 to 3.5 kg were used for these experiments. […] A dose response curve was plotted by using norepinephrine and a dose selected from the steepest interval of the curve was added repeatedly to the bath until obtaining equal responses. Then, the compound to be tested was added and after 5 minutes, the dose series of norepinephrine was repeated. The extent of the inhibition was expressed as percentage.
# [3] = tested on: adrenergic receptor-mediated calcium channel; experiment: Calcium-antagonism on isolated portal vein: adrenergic receptor-mediated calcium channel; type: cell-based; details: rat portal vein, 1×10^-5 mole norepinephrine, 37° C.; read-out: Inhibition of the calcium channel, adrenergic receptor-mediated, IC50
# Description: (§1) The calcium-antagonism of the compounds of the invention was studied on an isolated vessel preparation based on the work of M. Fiol de Cuneo et al. [Arch. Int. Pharmacodyn.
# (§2) Male CFY rats with a body-weight of 150 to 200 g were bled by decapitation and the portal vein was immediately prepared starting from the hepatic portal. The vessel was longitudinally incised, bound to a transducer registering the contractions and incubated under a tension of 1 g at 37° C. in a calcium-free Krebs-Ringer bicarbonate solution aerated with carbogen. After an equilibration lasting for 30 minutes, the functioning of the receptor-mediated and the K^+ -depolarisation-mediated calcium channels, respectively, were investigated.
# (§3) All measurements were carried out at 37° C. while bubbling through carbogen.
# [4] = tested on: anaesthetized dogs; experiment: Hypotensive and heart rate effects on anaesthetized dogs after intravenous or intraduodenal administration; type: in vivo, Beagle dog
# Description: (§4) Beagle dogs of both sexes were anaesthetized by the intravenous administration of 40 mg/kg of sodium pentobarbital. A cannula was introduced to the femoral artery and vein each on one side for the intravenous administration of the compounds to be tested as well as for measuring the blood pressure.
# In an other series of these experiments, the substances were administered through a duodenal tube. Similarly to the experiments carried out on cats, the systemic arterial blood pressure was measured by using an electromanometer and the cardiotachometer was triggered by the heart rate wave sign. […]
# [5] = tested on: conscious renal hypertensive rats; experiment: Antihypertensive effect on conscious renal hypertensive rats after acute oral treatment; type: in vivo, rat; details: 1.25 mg/kg p.o.
# Description: (§5) These experiments were accomplished on conscious spontaneously hypertensive (SH) and renally hypertensive rats.
# (§6) The systolic blood pressure and heart rate of the animals were indirectly measured by using the tail-cuff method by means of a 5- channel automatized equipment.
# [6] = tested on: renal artery; experiment: Renal arterial vascular resistance in anaesthetized dogs; type: in vivo, Beagle dog; details: 1.0 mg/kg intraduodenal
# Description: as §4
# In an other series of these experiments, the substances were administered through a duodenal tube. Similarly to the experiments carried out on cats, the systemic arterial blood pressure was measured by using an electromanometer and the cardiotachometer was triggered by the heart rate wave sign.
# The renal artery on one side was exposed retroperitoneally and fitted with an electromagnetic flow-meter head for measuring the blood flow of the renal arterial vascular bed and for determining the local vascular resistance.
# [7] = tested on: conscious SH rats; experiment: Antihypertensive effect on conscious SH rats after acute oral treatment; type: in vivo, rat; details: SH rats
# Description: as §5, §6
# [8] = target: T1, potential-mediated calcium channel (Rattus norvegicus, UniProt P22002); experiment: Calcium-antagonism on isolated portal vein: potential-mediated calcium channel; type: cell-based
# T1 construct: from tissue; host or cells: isolated rat portal vein
# Description: as §1, §2
# For investigating the potential-mediated calcium channel, the vein placed in the calcium-free Krebs-Ringer solution was washed by adding and then by removing 80 millimoles of potassium chloride while maintaining the isotania until no contraction appeared on repeatedly adding potassium chloride.
# as §3
# [9] = tested on: pressor (blood pressure increasing) effect of epinephrine; experiment: Inhibition of the pressor effect of epinephrine; details: in vivo
# [10] = tested on: conscious SH rats; experiment: Antihypertensive effect on conscious, spontaneously hypertensive (SH) rats after oral administration; type: in vivo, rat
# Description: The systolic blood pressure was indirectly measured by the tail-cuff method. The compounds to be tested were introduced orally (p.o.) to the animals. The blood pressure measurements were made by using a 5-channel automatized equipment.
# [11] = tested on: pre- and postsynaptic alpha receptors; experiment: Action on the pre- and postsynaptic adrenergic alpha receptors on the stimulated mouse vas deferens; type: cell-based; details: concentration 10^-7 mole
# Description: The method of Hughes et al. [Brit. J. Phamacol. 51, pp. 139-140P (1975)] was used. The preparations suspended in a modified Krebs solution at 31° C. were excited by the field stimulation method [rectangular paired impulses with 1 msec interval, supramaximal potential (70 to 75 V=8 to 9 V/cm) and 100 msec impulse interval, pairs repeated in each 10 sec]. After stimulation, norepinephrine (NE) was dropped into the organ bath and a dose-response curve was taken up. Thus, the effect of both the endogenous norepinephrine liberated by stimulation and the exogenous norepinephrine could be studied before and after adding the substance to be tested.
# [12] = rat portal vein, 80 millimoles KCl, 37° C., read-out: Inhibition of the calcium channel, potential-mediated, IC50
# T1 sequence (P22002 whole entry): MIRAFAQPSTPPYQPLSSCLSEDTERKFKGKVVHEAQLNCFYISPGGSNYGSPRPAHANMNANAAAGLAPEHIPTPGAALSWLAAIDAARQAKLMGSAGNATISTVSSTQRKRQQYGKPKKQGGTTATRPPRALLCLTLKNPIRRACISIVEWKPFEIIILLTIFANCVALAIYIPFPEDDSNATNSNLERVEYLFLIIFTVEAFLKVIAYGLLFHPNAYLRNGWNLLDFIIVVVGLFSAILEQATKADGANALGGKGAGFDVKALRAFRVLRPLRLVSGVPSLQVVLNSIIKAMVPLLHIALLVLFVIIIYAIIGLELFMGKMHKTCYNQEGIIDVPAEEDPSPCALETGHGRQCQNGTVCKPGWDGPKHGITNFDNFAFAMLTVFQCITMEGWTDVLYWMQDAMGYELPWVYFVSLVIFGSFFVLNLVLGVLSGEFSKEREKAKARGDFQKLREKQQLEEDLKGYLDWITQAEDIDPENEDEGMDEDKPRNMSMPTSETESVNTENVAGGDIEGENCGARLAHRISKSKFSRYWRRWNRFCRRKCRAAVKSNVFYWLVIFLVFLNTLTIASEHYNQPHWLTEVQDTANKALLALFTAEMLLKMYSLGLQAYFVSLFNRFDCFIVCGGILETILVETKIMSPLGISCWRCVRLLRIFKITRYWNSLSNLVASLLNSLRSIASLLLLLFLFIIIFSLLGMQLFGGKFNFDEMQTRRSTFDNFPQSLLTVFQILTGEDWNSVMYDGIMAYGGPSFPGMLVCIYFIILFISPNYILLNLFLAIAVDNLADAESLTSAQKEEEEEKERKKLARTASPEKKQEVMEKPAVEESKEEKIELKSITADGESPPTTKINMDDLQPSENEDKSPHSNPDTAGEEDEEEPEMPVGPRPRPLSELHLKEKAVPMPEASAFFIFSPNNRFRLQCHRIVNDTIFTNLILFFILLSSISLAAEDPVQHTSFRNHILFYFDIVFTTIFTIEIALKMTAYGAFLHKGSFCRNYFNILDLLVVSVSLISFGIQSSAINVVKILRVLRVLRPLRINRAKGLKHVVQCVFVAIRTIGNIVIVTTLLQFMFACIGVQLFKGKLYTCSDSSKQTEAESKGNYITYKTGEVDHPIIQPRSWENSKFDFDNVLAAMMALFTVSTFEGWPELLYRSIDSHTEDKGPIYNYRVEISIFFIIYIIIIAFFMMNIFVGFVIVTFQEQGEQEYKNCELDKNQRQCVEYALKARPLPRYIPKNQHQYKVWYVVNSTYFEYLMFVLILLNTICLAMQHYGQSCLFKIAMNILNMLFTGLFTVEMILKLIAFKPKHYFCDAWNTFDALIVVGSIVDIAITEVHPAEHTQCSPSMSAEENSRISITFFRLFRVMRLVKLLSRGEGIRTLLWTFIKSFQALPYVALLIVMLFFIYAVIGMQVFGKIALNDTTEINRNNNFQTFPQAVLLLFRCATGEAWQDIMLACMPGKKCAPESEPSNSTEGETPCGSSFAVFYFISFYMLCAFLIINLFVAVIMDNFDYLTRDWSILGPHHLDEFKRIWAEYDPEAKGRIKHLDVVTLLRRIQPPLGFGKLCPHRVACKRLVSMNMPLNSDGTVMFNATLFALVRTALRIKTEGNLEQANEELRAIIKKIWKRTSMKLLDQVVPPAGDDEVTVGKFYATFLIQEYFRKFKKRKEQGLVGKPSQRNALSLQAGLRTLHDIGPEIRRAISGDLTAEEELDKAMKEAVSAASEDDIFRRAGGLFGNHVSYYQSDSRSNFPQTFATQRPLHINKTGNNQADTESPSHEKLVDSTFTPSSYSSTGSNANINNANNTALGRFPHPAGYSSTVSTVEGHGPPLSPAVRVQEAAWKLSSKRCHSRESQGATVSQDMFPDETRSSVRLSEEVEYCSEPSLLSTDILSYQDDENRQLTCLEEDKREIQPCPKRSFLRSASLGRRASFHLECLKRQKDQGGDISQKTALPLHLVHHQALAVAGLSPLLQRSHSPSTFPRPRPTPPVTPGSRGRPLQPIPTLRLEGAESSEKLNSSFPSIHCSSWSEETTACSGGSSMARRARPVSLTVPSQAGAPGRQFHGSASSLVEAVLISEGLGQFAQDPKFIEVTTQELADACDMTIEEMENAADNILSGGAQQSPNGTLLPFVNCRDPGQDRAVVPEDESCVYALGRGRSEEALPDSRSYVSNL
# T1 sequence (P54290 25-944 partner limits assumed): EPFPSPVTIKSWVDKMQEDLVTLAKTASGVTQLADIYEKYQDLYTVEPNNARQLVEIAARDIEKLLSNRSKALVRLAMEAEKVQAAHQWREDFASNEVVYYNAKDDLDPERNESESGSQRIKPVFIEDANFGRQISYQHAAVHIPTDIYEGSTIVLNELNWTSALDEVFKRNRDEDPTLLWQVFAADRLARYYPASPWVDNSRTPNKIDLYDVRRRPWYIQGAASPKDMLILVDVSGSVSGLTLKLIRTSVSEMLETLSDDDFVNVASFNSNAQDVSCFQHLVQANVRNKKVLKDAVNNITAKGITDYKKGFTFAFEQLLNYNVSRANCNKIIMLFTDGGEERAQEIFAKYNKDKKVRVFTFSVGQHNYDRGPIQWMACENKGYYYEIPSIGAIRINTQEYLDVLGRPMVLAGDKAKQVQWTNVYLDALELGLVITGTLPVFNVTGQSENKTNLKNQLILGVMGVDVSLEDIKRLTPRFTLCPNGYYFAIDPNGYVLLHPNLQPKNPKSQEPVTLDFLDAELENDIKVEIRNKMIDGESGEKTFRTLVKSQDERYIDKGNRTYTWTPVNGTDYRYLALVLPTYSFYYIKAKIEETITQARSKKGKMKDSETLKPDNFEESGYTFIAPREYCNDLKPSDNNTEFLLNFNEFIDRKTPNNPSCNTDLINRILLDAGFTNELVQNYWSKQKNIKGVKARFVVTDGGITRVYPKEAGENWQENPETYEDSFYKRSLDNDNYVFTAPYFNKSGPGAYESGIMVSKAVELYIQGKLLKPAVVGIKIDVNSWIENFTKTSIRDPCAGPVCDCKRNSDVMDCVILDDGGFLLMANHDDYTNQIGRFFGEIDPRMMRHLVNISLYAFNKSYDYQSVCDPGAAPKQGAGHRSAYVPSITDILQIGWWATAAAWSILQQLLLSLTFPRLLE
# T1 sequence (P54290 945-1091 partner limits assumed): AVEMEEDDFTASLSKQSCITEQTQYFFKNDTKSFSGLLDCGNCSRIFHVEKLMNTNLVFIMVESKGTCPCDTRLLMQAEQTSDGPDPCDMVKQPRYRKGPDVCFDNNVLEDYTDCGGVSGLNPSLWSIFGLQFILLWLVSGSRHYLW
structure (smiles),measurement,setting,value
O=c1ccc(Cl)nn1CCCNCCSc1ccccc1 [Example 7],Mean arterial pressure decrease,[1]; 5.0 mg/kg i.v.,-35 Hgmm
"COc1cc2nc(N3CCN(C(=O)c4ccco4)CC3)nc(N)c2cc1OC.Cl [Prazosine, 1-(4-amino-6,7-dimethoxy-2-quinazolinyl)-4-(2-furylcarbonyl)-piperazine hydrochloride, reference compound]",pA2,"[2]; negative logarithm of the molar antagonist concentration inhibiting the agonist to 50%, norepinephrine agonist, 5 min",9.45
same,Slope of the curve,"[2]; rabbit aorta, norepinephrine",-0.96
same,IC50,[3],0.009 µM
same,hypotensive action relative to same intraduodenal dose of compound of Example 3 (or 12),[4]; prazosine 1 mg/kg intraduodenal,only the half
same,hypotension,[5],26%
same,hypotension in the 5th hour,[5]; 5th hour,20%
same,decrease in resistance of the renal artery,[6],about 40%
same,antihypertensive effect in the 5th hour,"[7]; 1.25 mg/kg p.o., 5th hour",26%
same,IC50,[8],500 µM
O=c1ccc(Cl)nn1CCCNCCOc1ccccc1Cl [Example 8],inhibition of the pressor effect of epinephrine (in words),[9],significant inhibition
same,Mean arterial pressure decrease,[1]; 5.0 mg/kg i.v.,-80 Hgmm
same,blood pressure lowering action (in words),[1],particularly expressed
same,Decrease in the systolic blood pressure,[10]; 50 mg/kg p.o.,-18%
O=c1cccnn1CCNCC1COc2ccccc2O1 (centres unmarked) [Example 27],Mean arterial pressure decrease,[1]; 5.0 mg/kg i.v.,-30 Hgmm
O=c1cccnn1CCCNCCOc1ccccc1F [Example 10],inhibition of the pressor effect of epinephrine (in words),[9],significant inhibition
same,Mean arterial pressure decrease,[1]; 5.0 mg/kg i.v.,-60 Hgmm
same,Decrease in the systolic blood pressure,[10]; 50 mg/kg p.o.,-25%
O=c1ccc(-n2cccc2)nn1CCCNCCOc1ccccc1 [Example 6],Mean arterial pressure decrease,[1]; 5.0 mg/kg i.v.,-35 Hgmm
O=c1cccnn1CCNCCOc1ccccc1 [Example 21],Mean arterial pressure decrease,[1]; 5.0 mg/kg i.v.,-60 Hgmm
"COC(=O)C1=C(C)NC(C)=C(C(=O)OC)C1c1ccccc1[N+](=O)[O-] [Nifedipine, 2,6-dimethyl-4-(2-nitrophenyl)-1,4-dihydropyridine-3,5-dicarboxylic acid dimethyl ester, reference compound]",IC50,[3],2 µM
CCOC(=O)N1CCN(c2ccc(=O)n(CCNCCOc3ccccc3)n2)CC1 [Example 22],Mean arterial pressure decrease,[1]; 5.0 mg/kg i.v.,-35 Hgmm
"COc1ccc(CCN(C)CCCC(C#N)(c2ccc(OC)c(OC)c2)C(C)C)cc1OC (centres unmarked) [Verapamil, reference compound]",IC50,[3],1 µM
same,hypotension,[4]; 10 mg/kg intraduodenal,30%
same,time of maximum effect,[4]; 10 mg/kg intraduodenal,30 min
same,antihypertensive effect,[7]; 50 mg/kg p.o.,30%
O=c1cccnn1CCCNCCCOc1ccccc1 [Example 9],Mean arterial pressure decrease,[1]; 5.0 mg/kg i.v.,-55 Hgmm
O=c1cccnn1CCCNCCOc1ccccc1 [Example 5],IC50,[3],20 µM
same,Inhibition of the stimulation,[11],16.2%
same,inhibition of the pressor effect of epinephrine (in words),[9],significant inhibition
same,Mean arterial pressure decrease,[1]; 5.0 mg/kg i.v.,-100 Hgmm
same,blood pressure lowering action (in words),[1],particularly expressed
same,Decrease in the systolic blood pressure,[10]; 10 mg/kg p.o.,-45%
same,Decrease in the systolic blood pressure,[10]; 50 mg/kg p.o.,-42%
same,IC50,[8]; [12],50 µM
O=c1ccc(Cl)nn1CCCNCCOc1ccccc1 [Example 4],IC50,[3],0.1 µM
same,Mean arterial pressure decrease,[1]; 5.0 mg/kg i.v.,-70 Hgmm
same,blood pressure lowering action (in words),[1],particularly expressed
same,Decrease in the systolic blood pressure,[10]; 50 mg/kg p.o.,-33%
same,IC50,[8]; [12],0.2 µM
"O=c1ccc(Cl)nn1CCCNCC1COc2ccccc2O1 (centres unmarked) [Example 2, 2-[3-(benzo[1,4]dioxan-2-yl-methylamino)-1-propyl]-6-chloro-3(2H)-pyridazinone hydrochloride]",IC50,[3],4 µM
same,Inhibition of the stimulation,[11],0%
same,Mean arterial pressure decrease,[1]; 1.0 mg/kg i.v.,-90 Hgmm
same,blood pressure lowering action (in words),[1],particularly expressed
same,IC50,[8]; [12],10 µM
O=c1ccc(N2CCOCC2)nn1CCNCCOc1ccccc1 [Example 28],Mean arterial pressure decrease,[1]; 5.0 mg/kg i.v.,-50 Hgmm
Cc1cc(C)n(-c2ccc(=O)n(CCNCCOc3ccccc3)n2)n1 [Example 23],Mean arterial pressure decrease,[1]; 5.0 mg/kg i.v.,-65 Hgmm
